Measurements published in patent US20140187594A1, “DIPHENYL ETHER COMPOUNDS FOR THE TREATMENT OF LIVER, LUNG DISORDERS, DIABETIC COMPLICATIONS AND CARDIOVASCULAR DISEASES” (ORCHID CHEMICALS AND PHARMACEUTICALS LTD, priority 2010, published 2014).

Tests used:
[1] = 48 weeks, 4 mg twice daily; Hepatology, 2003, 38, 1008-1017; cited from earlier work
[2] = system: Hepatic stellate cells (LX2); assay: Induction of apoptosis in hepatic stellate cells (LX2), propidium iodide staining; format: cell-based; details: 8 hours, PI staining
From the text: Propidium iodide (PI) has been widely used to measure apoptosis in different experimental systems (Eur. J. Pharmacol., 2003, 473, 117-125; Br. J. Pharmacol., 2009, 158, 1720-1734). […] Next, cells were washed with PBS for 2 times to remove unbound PI and the fluorescence images were acquired with DP71 camera adapted to an Olympus IX71 microscope. Apoptotic cells were detected by propidium iodide (PI) staining and % apoptotic cells per field were estimated. Number of PI positive cells and total number of cells were counted from the images and plotted as percentage of apoptotic cells per field.

[3] = molecular target: T1, Matrix metalloproteinase-2 (MMP-2) (Homo sapiens, UniProt P08253); assay: Matrix metalloproteinase-2 (MMP-2) inhibitory activity; format: biochemical
T1 sequence (P08253 110-660): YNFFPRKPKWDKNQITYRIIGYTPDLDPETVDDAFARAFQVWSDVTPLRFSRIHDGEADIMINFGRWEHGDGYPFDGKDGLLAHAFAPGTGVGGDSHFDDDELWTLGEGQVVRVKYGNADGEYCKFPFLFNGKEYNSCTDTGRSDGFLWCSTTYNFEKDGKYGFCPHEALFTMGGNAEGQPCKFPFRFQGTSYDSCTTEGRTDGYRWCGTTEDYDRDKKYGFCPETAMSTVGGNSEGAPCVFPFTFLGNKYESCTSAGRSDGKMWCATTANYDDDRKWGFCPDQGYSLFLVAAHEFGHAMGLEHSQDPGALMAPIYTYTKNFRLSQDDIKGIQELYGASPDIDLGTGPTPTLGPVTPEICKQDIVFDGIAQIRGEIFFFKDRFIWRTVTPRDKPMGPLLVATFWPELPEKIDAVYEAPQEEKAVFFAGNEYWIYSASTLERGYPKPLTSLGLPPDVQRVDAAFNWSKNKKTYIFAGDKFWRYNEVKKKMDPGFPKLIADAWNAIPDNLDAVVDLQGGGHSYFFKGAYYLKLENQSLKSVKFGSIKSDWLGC
Experimental: 3. Matrix Metalloproteinase-2 (MMP-2) Inhibitory Activity (at 10 μM)
MMP-2 enzymes are implicated in lung metastasis and there inhibition is useful to prevent or treat lung metastasis (Journal of Ethnopharmacology 2011, 133, 426-433).

[4] = system: human endothelial cells (ECV 304); assay: Selectivity of apoptosis induction: endothelial cells; format: cell-based; details: ECV 304, PI staining
Experimental: (§1) Propidium iodide (PI) has been widely used to measure apoptosis in different experimental systems (Eur. J. Pharmacol., 2003, 473, 117-125; Br. J. Pharmacol., 2009, 158, 1720-1734). The LX2 cells were treated with vehicle (DMSO), staurosporine (0.1 nM), compound of formula (B) (2 μM), compound of formula (C) (2 μM) for 8 hours followed by propidium iodide (PI) for 10 minute. Next, cells were washed with PBS for 2 times to remove unbound PI and the fluorescence images were acquired with DP71 camera adapted to an Olympus IX71 microscope. Apoptotic cells were detected by propidium iodide (PI) staining and % apoptotic cells per field were estimated. Number of PI positive cells and total number of cells were counted from the images and plotted as percentage of apoptotic cells per field.
(§2) The methodology adopted is same as in Experiment-7 above.
(§3) Apoptotic cells were detected by propidium iodide (PI) staining and % apoptotic cells per field were estimated.

[5] = system: human hepatocytes (HepG2); assay: Selectivity of apoptosis induction: hepatocytes; format: cell-based; details: HepG2, PI staining
[6] = molecular target: T2, Rat lens Aldose reductase (Rattus norvegicus, UniProt P07943); assay: Aldose reductase inhibitory activity; format: biochemical; details: rat lens enzyme, 0.2 mM NADPH, pH 6.2, 25° C.
T2 construct: Rat lens Aldose reductase is used; from tissue; host or cells: rat lens
Experimental: Rat lens Aldose reductase is used. Test compound and/or vehicle is preincubated with 3000 μg/ml enzyme (J. Enzyme Inhib. 1993, 7, 249-256; Biol. Pharm. Bull. 1994, 17, 458-459) and 0.2 mM NADPH in phosphate buffer pH 6.2 for 15 minutes at 25° C. The reaction is initiated by addition of 10 mM DL-glyceraldehyde and incubated for another 20 minutes. Determination of the amount of NADPH remained is read spectrophotometrically. Compounds are screened at 10 μM. Since enzyme activity may change from lot to lot, the concentration used will be adjusted if necessary.

3T3-L1 fibroblasts = assay: Adipogenesis in 3T3-L1 mouse fibroblast (oil red O staining); format: cell-based; details: 1 μM or 10 μM, 7 days
Experimental: 3T3-L1 fibroblasts were seeded at a concentration of 10,000 cells/well in 24 well tissue culture plates in a total volume of 1 mL Dulbecco's Modified Eagle Medium (DMEM media) containing 10% fetal bovine serum, penicillin and streptomycin. […] After every two days, the media contents were replaced with fresh media and the drug. This process was carried out for 7 days. After 7 days of treatment, the cells were fixed in 10% formalin for 1 hour at […], stained with oil red 0 solution for 10 minutes and washed 6 times with 1×PBS to remove the excess stain. The plates were dried and visualized under 40× objective using Nikon E200 microscope and the pictures were taken by Nikon DXM 1200C digital camera.

[7] = system: human fibroblast cells isolated from skin biopsies; assay: Selectivity of apoptosis induction: skin fibroblasts; format: cell-based; details: PI staining
Experimental: as §1, §2, §3

collagen type 1 = assay: Collagen type 1 secretion in activated hepatic stellate cells (western blot); format: cell-based; details: overnight incubation, FIGS. 35a & 35b
Experimental: HSC cells were treated with the drugs and incubated overnight. The conditioned media was taken out and the secreted proteins were extracted using TCA-acetone method. The cells were harvested for western blot analysis and 1% SDS was added to the sample. Proteins were detected by using 1:500 dilution of polyclonal antibody to collagen type 1 (Abcam; AB292) and 1:1000 dilutions of goat anti-rabbit IgG conjugated to horseradish peroxidase (Bangalore GENEI). The blots were developed by using substrate TMB/H2O2. Loading control was performed using the β-actin house keeping gene expression level.

Row | SMILES | median weight gain increase [1] | patients in whom weight gain occurred [1] | % apoptotic cells per field ([2]; 0.1 nM) | inhibition at 10 µM [3] | apoptosis vs vehicle (DMSO) [4] | apoptosis vs vehicle (DMSO) [5] | IC50 [6] | adipogenesis (intracellular lipids stained with oil red O) (3T3-L1 fibroblasts) | apoptosis vs vehicle (DMSO) [7] | Collagen secretion by activated hepatic stellate cells (collagen type 1) | % apoptotic cells per field ([2]; 2 μM)
1 | CN(CCOc1ccc(CC2SC(=O)NC2=O)cc1)c1ccccn1 (stereo not shown) [Rosiglitazone] | 7.3% | 67% | – | – | – | – | – | – | – | – | –
2 | CN[C@@H]1C[C@H]2O[C@@](C)([C@@H]1OC)n1c3ccccc3c3c4c(c5c6ccccc6n2c5c31)C(=O)NC4 [staurosporine, reference compound] | – | – | approximately 23% | – | – | – | – | – | – | – | –
3 | O=C(O)Cc1ccc(Oc2ccc(CC3SC(=O)NC3=O)cc2)cc1 (stereo not shown) [Compound of formula (C), (4-{4-[(2,4-Dioxo-1,3-thiazolidin-5-yl)methyl]phenoxy}phenyl)acetic acid] | – | – | – | 16% | no significant apoptosis | no significant apoptosis | 1.43 µM | did not induce adipogenesis | no significant apoptosis | markedly decreased | 7.5±0.64%
4 | N[C@@H](Cc1ccc(Oc2ccc(CC3SC(=O)NC3=O)cc2)cc1)C(=O)O (stereo partly drawn) [Compound of formula (B), (2S)-2-Amino-3-(4-{4-[(2,4-dioxo-1,3-thiazolidin-5-yl)methyl]phenoxy}phenyl)propanoic acid] | – | – | – | 59% | no significant apoptosis | no significant apoptosis | 4.92 µM | did not induce adipogenesis | no significant apoptosis | markedly decreased | 6±0.40%
